Experimental data reported in PubChem BioAssay (NCI).
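Protocol summary: plate cells (96-well), add compound at 5 concentrations, incubate 48 h, interpolate endpoints linearly. The concentration for 50% growth inhibition is given as GI50. The concentration for full growth arrest is given as TGI.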

Tested on: SNB-19 CNS
Assay: NCI-60 cell line screen, 48 h

Compound	TGI
O=S1(=O)C[C@H](O)[C@H](O)CS1	> 100 µM
N#Cc1nc(Nc2cccc3ccccc23)sc1N	> 100 µM
CCN(CC)CC1CCCCCCCCCCC1=O (stereo not given)	> 100 µM
O=C1C(Cl)N(c2ccc(Cl)cc2)C1c1c[nH]c2ccccc12 (stereo not given)	> 100 µM

Tested on: ACHN renal
Assay: NCI-60 cell line screen, 48 h

Compound	TGI	GI50
Cc1ccc(NC(=O)C(=O)C(C(=O)c2ccc3ccccc3c2)C2OC(=O)c3ccccc32)cc1C (stereo not given)	> 100 µM	–
CCC[CH2][Sn]1([CH2]CCC)[O]N=C(c2ccccc2)C(c2ccccc2)[O]1 (stereo not given)	3.1 µM	1.72 µM
O=S1(=O)C[C@H](O)[C@H](O)CS1	> 100 µM	–
N#Cc1nc(Nc2cccc3ccccc23)sc1N	75.3 µM	–
COc1cc([C@H]2Oc3cc(O)c4c(=O)cc(-c5ccccc5)oc4c3O[C@@H]2CO)ccc1O	63.8 µM	–
CCN(CC)CC1CCCCCCCCCCC1=O (stereo not given)	> 100 µM	–

Tested on: XF 498 CNS
Assay: NCI-60 cell line screen, 48 h

Compound	TGI
Cc1ccc(NC(=O)C(=O)C(C(=O)c2ccc3ccccc3c2)C2OC(=O)c3ccccc32)cc1C (stereo not given)	18.2 µM
O=S1(=O)C[C@H](O)[C@H](O)CS1	> 100 µM
N#Cc1nc(Nc2cccc3ccccc23)sc1N	> 100 µM
CCN(CC)CC1CCCCCCCCCCC1=O (stereo not given)	> 100 µM
O=C1C(Cl)N(c2ccc(Cl)cc2)C1c1c[nH]c2ccccc12 (stereo not given)	31.3 µM

Tested on: DMS 273 small cell lung
Assay: NCI-60 cell line screen, 48 h

Compound	TGI	GI50
Cc1ccc(NC(=O)C(=O)C(C(=O)c2ccc3ccccc3c2)C2OC(=O)c3ccccc32)cc1C (stereo not given)	30.3 µM	–
CCC[CH2][Sn]1([CH2]CCC)[O]N=C(c2ccccc2)C(c2ccccc2)[O]1 (stereo not given)	3.05 µM	1.59 µM
O=S1(=O)C[C@H](O)[C@H](O)CS1	> 100 µM	–
N#Cc1nc(Nc2cccc3ccccc23)sc1N	> 100 µM	–
COc1cc([C@H]2Oc3cc(O)c4c(=O)cc(-c5ccccc5)oc4c3O[C@@H]2CO)ccc1O	> 100 µM	–
CCN(CC)CC1CCCCCCCCCCC1=O (stereo not given)	> 100 µM	–

Tested on: RPMI-8226 leukemia
Assay: NCI-60 cell line screen, 48 h

Compound	TGI	GI50
Cc1ccc(NC(=O)C(=O)C(C(=O)c2ccc3ccccc3c2)C2OC(=O)c3ccccc32)cc1C (stereo not given)	37.5 µM	–
CCC[CH2][Sn]1([CH2]CCC)[O]N=C(c2ccccc2)C(c2ccccc2)[O]1 (stereo not given)	4.38 µM	0.588 µM
O=S1(=O)C[C@H](O)[C@H](O)CS1	> 100 µM	–
N#Cc1nc(Nc2cccc3ccccc23)sc1N	72 µM	–
COc1cc([C@H]2Oc3cc(O)c4c(=O)cc(-c5ccccc5)oc4c3O[C@@H]2CO)ccc1O	> 100 µM	–
CCN(CC)CC1CCCCCCCCCCC1=O (stereo not given)	> 100 µM	–
O=C1C(Cl)N(c2ccc(Cl)cc2)C1c1c[nH]c2ccccc12 (stereo not given)	> 100 µM	–

Tested on: IGROV1 ovarian
Assay: NCI-60 cell line screen, 48 h

Compound	TGI	GI50
Cc1ccc(NC(=O)C(=O)C(C(=O)c2ccc3ccccc3c2)C2OC(=O)c3ccccc32)cc1C (stereo not given)	64 µM	–
CCC[CH2][Sn]1([CH2]CCC)[O]N=C(c2ccccc2)C(c2ccccc2)[O]1 (stereo not given)	3.9 µM	1.89 µM
O=S1(=O)C[C@H](O)[C@H](O)CS1	> 100 µM	–
N#Cc1nc(Nc2cccc3ccccc23)sc1N	> 100 µM	–
COc1cc([C@H]2Oc3cc(O)c4c(=O)cc(-c5ccccc5)oc4c3O[C@@H]2CO)ccc1O	> 100 µM	–
CCN(CC)CC1CCCCCCCCCCC1=O (stereo not given)	> 100 µM	–
O=C1C(Cl)N(c2ccc(Cl)cc2)C1c1c[nH]c2ccccc12 (stereo not given)	62.6 µM	–

Tested on: A498 renal
Assay: NCI-60 cell line screen, 48 h

Compound	TGI	GI50
Cc1ccc(NC(=O)C(=O)C(C(=O)c2ccc3ccccc3c2)C2OC(=O)c3ccccc32)cc1C (stereo not given)	31 µM	–
CCC[CH2][Sn]1([CH2]CCC)[O]N=C(c2ccccc2)C(c2ccccc2)[O]1 (stereo not given)	4.82 µM	2.59 µM
O=S1(=O)C[C@H](O)[C@H](O)CS1	> 100 µM	–
COc1cc([C@H]2Oc3cc(O)c4c(=O)cc(-c5ccccc5)oc4c3O[C@@H]2CO)ccc1O	73.4 µM	–
CCN(CC)CC1CCCCCCCCCCC1=O (stereo not given)	> 100 µM	–

Tested on: OVCAR-4 ovarian
Assay: NCI-60 cell line screen, 48 h

Compound	TGI	GI50
Cc1ccc(NC(=O)C(=O)C(C(=O)c2ccc3ccccc3c2)C2OC(=O)c3ccccc32)cc1C (stereo not given)	40.6 µM	–
CCC[CH2][Sn]1([CH2]CCC)[O]N=C(c2ccccc2)C(c2ccccc2)[O]1 (stereo not given)	4.18 µM	2.13 µM
O=S1(=O)C[C@H](O)[C@H](O)CS1	> 100 µM	–
N#Cc1nc(Nc2cccc3ccccc23)sc1N	> 100 µM	–
COc1cc([C@H]2Oc3cc(O)c4c(=O)cc(-c5ccccc5)oc4c3O[C@@H]2CO)ccc1O	89.4 µM	–
CCN(CC)CC1CCCCCCCCCCC1=O (stereo not given)	> 100 µM	–
O=C1C(Cl)N(c2ccc(Cl)cc2)C1c1c[nH]c2ccccc12 (stereo not given)	> 100 µM	–

Tested on: UACC-62 melanoma
Assay: NCI-60 cell line screen, 48 h

Compound	TGI	GI50
Cc1ccc(NC(=O)C(=O)C(C(=O)c2ccc3ccccc3c2)C2OC(=O)c3ccccc32)cc1C (stereo not given)	30.7 µM	–
CCC[CH2][Sn]1([CH2]CCC)[O]N=C(c2ccccc2)C(c2ccccc2)[O]1 (stereo not given)	2.81 µM	1.42 µM
O=S1(=O)C[C@H](O)[C@H](O)CS1	> 100 µM	–
N#Cc1nc(Nc2cccc3ccccc23)sc1N	59 µM	–
COc1cc([C@H]2Oc3cc(O)c4c(=O)cc(-c5ccccc5)oc4c3O[C@@H]2CO)ccc1O	> 100 µM	–
CCN(CC)CC1CCCCCCCCCCC1=O (stereo not given)	> 100 µM	–
O=C1C(Cl)N(c2ccc(Cl)cc2)C1c1c[nH]c2ccccc12 (stereo not given)	68.8 µM	–

Tested on: HOP-62 NSCLC
Assay: NCI-60 cell line screen, 48 h

Compound	TGI	GI50
Cc1ccc(NC(=O)C(=O)C(C(=O)c2ccc3ccccc3c2)C2OC(=O)c3ccccc32)cc1C (stereo not given)	35.7 µM	–
CCC[CH2][Sn]1([CH2]CCC)[O]N=C(c2ccccc2)C(c2ccccc2)[O]1 (stereo not given)	7.93 µM	3.24 µM
O=S1(=O)C[C@H](O)[C@H](O)CS1	> 100 µM	–
N#Cc1nc(Nc2cccc3ccccc23)sc1N	> 100 µM	–
COc1cc([C@H]2Oc3cc(O)c4c(=O)cc(-c5ccccc5)oc4c3O[C@@H]2CO)ccc1O	> 100 µM	–
CCN(CC)CC1CCCCCCCCCCC1=O (stereo not given)	> 100 µM	–
O=C1C(Cl)N(c2ccc(Cl)cc2)C1c1c[nH]c2ccccc12 (stereo not given)	33.7 µM	–

Tested on: A549 NSCLC
Assay: NCI-60 cell line screen, 48 h

Compound	TGI	GI50
Cc1ccc(NC(=O)C(=O)C(C(=O)c2ccc3ccccc3c2)C2OC(=O)c3ccccc32)cc1C (stereo not given)	82.4 µM	–
CCC[CH2][Sn]1([CH2]CCC)[O]N=C(c2ccccc2)C(c2ccccc2)[O]1 (stereo not given)	22.3 µM	10.5 µM
O=S1(=O)C[C@H](O)[C@H](O)CS1	> 100 µM	–
N#Cc1nc(Nc2cccc3ccccc23)sc1N	> 100 µM	–
CCN(CC)CC1CCCCCCCCCCC1=O (stereo not given)	> 100 µM	–
O=C1C(Cl)N(c2ccc(Cl)cc2)C1c1c[nH]c2ccccc12 (stereo not given)	> 100 µM	–

Tested on: RXF 393 renal
Assay: NCI-60 cell line screen, 48 h

Compound	GI50	TGI
CCC[CH2][Sn]1([CH2]CCC)[O]N=C(c2ccccc2)C(c2ccccc2)[O]1 (stereo not given)	1.5 µM	2.87 µM
O=S1(=O)C[C@H](O)[C@H](O)CS1	–	> 100 µM
O=C1C(Cl)N(c2ccc(Cl)cc2)C1c1c[nH]c2ccccc12 (stereo not given)	–	42.1 µM

Tested on: SR leukemia
Assay: NCI-60 cell line screen, 48 h

Compound	GI50	TGI
CCC[CH2][Sn]1([CH2]CCC)[O]N=C(c2ccccc2)C(c2ccccc2)[O]1 (stereo not given)	0.574 µM	3.59 µM
O=S1(=O)C[C@H](O)[C@H](O)CS1	–	> 100 µM
N#Cc1nc(Nc2cccc3ccccc23)sc1N	–	27.8 µM
COc1cc([C@H]2Oc3cc(O)c4c(=O)cc(-c5ccccc5)oc4c3O[C@@H]2CO)ccc1O	–	> 100 µM
CCN(CC)CC1CCCCCCCCCCC1=O (stereo not given)	–	> 100 µM
O=C1C(Cl)N(c2ccc(Cl)cc2)C1c1c[nH]c2ccccc12 (stereo not given)	–	39.4 µM

Tested on: HCT-116 colon
Assay: NCI-60 cell line screen, 48 h

Compound	TGI	GI50
Cc1ccc(NC(=O)C(=O)C(C(=O)c2ccc3ccccc3c2)C2OC(=O)c3ccccc32)cc1C (stereo not given)	25.5 µM	–
CCC[CH2][Sn]1([CH2]CCC)[O]N=C(c2ccccc2)C(c2ccccc2)[O]1 (stereo not given)	3.35 µM	1.67 µM
O=S1(=O)C[C@H](O)[C@H](O)CS1	> 100 µM	–
N#Cc1nc(Nc2cccc3ccccc23)sc1N	> 100 µM	–
COc1cc([C@H]2Oc3cc(O)c4c(=O)cc(-c5ccccc5)oc4c3O[C@@H]2CO)ccc1O	> 100 µM	–
CCN(CC)CC1CCCCCCCCCCC1=O (stereo not given)	> 100 µM	–
O=C1C(Cl)N(c2ccc(Cl)cc2)C1c1c[nH]c2ccccc12 (stereo not given)	28.2 µM	–

Tested on: SNB-78 CNS
Assay: NCI-60 cell line screen, 48 h

Compound	GI50	TGI
CCC[CH2][Sn]1([CH2]CCC)[O]N=C(c2ccccc2)C(c2ccccc2)[O]1 (stereo not given)	3.07 µM	8.01 µM
O=S1(=O)C[C@H](O)[C@H](O)CS1	–	> 100 µM
N#Cc1nc(Nc2cccc3ccccc23)sc1N	–	75.6 µM
CCN(CC)CC1CCCCCCCCCCC1=O (stereo not given)	–	> 100 µM
